# Results taken from ChEMBL document CHEMBL1135875, “Hydrophobic modifications at 1-phosphate of inositol 1,4,5-trisphosphate analogues enhance receptor binding” (Bioorg Med Chem Lett, 2002).
# What was measured:
# [1] = molecular target: T1, Inositol 1,4,5-trisphosphate-gated calcium channel ITPR1 (Homo sapiens, UniProt Q14643); test: Dissociation constant using IP3-binding domain (IBD) of human Type 1 inositol 1,4,5-trisphosphate receptor
# [2] = molecular target: T1, Inositol 1,4,5-trisphosphate-gated calcium channel ITPR1; test: Affinity towards IP3-binding domain (IBD) of human Type 1 inositol 1,4,5-trisphosphate receptor was determined relative to compound 2
# T1 sequence (Q14643 whole entry, the tested form may be a part): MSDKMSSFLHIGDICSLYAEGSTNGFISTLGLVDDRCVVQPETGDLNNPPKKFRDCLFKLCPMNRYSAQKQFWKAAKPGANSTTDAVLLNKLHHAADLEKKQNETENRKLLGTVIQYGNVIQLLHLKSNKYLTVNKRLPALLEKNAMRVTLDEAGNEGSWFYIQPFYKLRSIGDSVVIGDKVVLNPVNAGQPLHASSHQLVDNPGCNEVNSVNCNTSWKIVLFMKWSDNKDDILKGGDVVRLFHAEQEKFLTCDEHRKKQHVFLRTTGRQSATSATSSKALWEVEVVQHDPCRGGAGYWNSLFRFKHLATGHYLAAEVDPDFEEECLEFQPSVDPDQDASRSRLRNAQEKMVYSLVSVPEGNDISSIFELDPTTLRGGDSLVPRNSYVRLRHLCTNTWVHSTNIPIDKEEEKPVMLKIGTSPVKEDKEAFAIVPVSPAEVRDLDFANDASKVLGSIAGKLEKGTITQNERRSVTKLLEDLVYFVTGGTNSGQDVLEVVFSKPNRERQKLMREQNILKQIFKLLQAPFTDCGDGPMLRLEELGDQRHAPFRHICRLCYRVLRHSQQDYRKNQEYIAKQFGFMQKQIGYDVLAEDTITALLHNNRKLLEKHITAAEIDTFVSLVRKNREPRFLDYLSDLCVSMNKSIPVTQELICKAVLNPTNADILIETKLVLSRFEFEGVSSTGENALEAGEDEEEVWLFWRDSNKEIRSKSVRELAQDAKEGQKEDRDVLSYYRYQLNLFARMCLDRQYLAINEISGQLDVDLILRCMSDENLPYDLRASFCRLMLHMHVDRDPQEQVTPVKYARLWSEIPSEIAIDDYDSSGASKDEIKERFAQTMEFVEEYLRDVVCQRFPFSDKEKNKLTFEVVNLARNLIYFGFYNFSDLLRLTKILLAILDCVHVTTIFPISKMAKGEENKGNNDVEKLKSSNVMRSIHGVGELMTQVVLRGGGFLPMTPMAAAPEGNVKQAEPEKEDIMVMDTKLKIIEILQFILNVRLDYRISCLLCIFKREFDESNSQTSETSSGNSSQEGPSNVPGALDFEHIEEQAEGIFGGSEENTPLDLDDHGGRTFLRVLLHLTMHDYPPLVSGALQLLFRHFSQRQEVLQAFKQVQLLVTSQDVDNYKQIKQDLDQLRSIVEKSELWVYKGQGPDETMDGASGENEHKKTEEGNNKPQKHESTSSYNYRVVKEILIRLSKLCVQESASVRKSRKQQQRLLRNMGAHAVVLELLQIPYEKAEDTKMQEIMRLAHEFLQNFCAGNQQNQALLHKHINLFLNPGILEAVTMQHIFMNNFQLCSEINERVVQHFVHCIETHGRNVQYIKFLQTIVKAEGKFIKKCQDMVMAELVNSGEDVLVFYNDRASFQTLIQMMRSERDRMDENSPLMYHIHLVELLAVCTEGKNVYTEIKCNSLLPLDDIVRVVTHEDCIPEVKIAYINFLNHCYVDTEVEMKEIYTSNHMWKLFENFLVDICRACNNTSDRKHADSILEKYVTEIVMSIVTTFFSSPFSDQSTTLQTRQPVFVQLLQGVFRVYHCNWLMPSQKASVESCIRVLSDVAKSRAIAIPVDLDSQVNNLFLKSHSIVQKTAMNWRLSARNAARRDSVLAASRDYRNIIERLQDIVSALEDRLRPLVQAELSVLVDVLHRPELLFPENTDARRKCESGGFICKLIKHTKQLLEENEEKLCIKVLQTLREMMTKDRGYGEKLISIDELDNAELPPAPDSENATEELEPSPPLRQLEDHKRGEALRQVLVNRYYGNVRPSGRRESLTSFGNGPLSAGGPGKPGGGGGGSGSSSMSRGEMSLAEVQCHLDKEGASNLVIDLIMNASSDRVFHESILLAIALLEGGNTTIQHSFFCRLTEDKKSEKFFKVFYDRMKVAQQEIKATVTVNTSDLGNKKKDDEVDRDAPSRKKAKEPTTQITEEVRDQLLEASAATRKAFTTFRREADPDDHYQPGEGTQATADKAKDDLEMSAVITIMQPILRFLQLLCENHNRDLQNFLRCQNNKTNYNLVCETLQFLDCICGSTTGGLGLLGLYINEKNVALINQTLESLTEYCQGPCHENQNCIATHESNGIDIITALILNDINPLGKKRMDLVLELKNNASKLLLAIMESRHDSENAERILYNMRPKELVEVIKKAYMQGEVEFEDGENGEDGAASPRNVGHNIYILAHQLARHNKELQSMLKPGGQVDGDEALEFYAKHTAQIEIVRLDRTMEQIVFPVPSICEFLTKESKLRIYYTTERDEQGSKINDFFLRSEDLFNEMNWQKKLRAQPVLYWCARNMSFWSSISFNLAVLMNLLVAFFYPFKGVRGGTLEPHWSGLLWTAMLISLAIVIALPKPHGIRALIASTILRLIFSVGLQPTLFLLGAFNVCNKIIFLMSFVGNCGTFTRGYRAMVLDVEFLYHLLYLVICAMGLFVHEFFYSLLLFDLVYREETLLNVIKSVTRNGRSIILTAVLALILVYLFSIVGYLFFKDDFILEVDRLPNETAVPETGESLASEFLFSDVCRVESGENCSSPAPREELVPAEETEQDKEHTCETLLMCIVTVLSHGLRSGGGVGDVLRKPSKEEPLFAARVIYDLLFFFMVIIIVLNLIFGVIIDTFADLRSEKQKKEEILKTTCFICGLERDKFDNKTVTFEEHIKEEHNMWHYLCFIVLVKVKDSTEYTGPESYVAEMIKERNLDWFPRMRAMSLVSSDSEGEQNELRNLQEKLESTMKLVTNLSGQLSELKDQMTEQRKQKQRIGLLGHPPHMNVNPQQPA
Kd [1],Relative affinity [2],Compound
1500 nM,1,NCCCOP(=O)(O)O[C@@H]1[C@H](O)[C@H](O)[C@@H](OP(=O)(O)O)[C@H](OP(=O)(O)O)[C@H]1O
620 nM,2.4,CN(C)c1ccc2c(-c3ccc(C(=O)NCCCOP(=O)(O)O[C@@H]4[C@H](O)[C@H](O)[C@@H](OP(=O)(O)O)[C@H](OP(=O)(O)O)[C@H]4O)cc3C(=O)[O-])c3ccc(=[N+](C)C)cc-3oc2c1
–,950,CN(C)c1ccc(C(=C2C=CC(=[N+](C)C)C=C2)c2ccc(C(=O)NCCCOP(=O)(O)O[C@@H]3[C@H](O)[C@H](O)[C@@H](OP(=O)(O)O)[C@H](OP(=O)(O)O)[C@H]3O)cc2)cc1
